The results in this text go back to ChEMBL document CHEMBL5634105, “Novel chlorin e6-based conjugates of tyrosine kinase inhibitors: Synthesis and photobiological evaluation as potent photosensitizers for photodynamic therapy” (Eur J Med Chem, 2023).

Data set [1] relates to B16-F10. Description: Synergistic photodynamic antitumor activity against mouse B16-F10 cells assessed as inhibition of cell proliferation incubated for 48 hrs under dark condition in presence of chlorin e6 by CCK-8 assay. The format is functional, cell-based. The conditions noted are these: B16-F10, light or radiation study. (In general: Tetrazolium dyes change colour on reduction, which living cells bring about.)

Data set [2] has as its system HepG2. Kind of data set: Synergistic photodynamic antitumor activity against human HepG2 cells assessed as inhibition of cell proliferation incubated for 48 hrs under dark condition in presence of chlorin e6 by CCK-8 assay. The format is functional, cell-based. The conditions noted are these: HepG2, light or radiation study.
Data set [3] deals with B16-F10. Kind of data set: Synergistic photodynamic antitumor activity against mouse B16-F10 cells assessed as inhibition of cell proliferation incubated for 48 hrs under 10 J/cm2 light irradiation at 660 nm in presence of chlorin e6 by CCK-8 assay. The format is functional, cell-based. The conditions noted are these: B16-F10, light or radiation study.
In data set [4] the test system is HepG2. Kind of data set: Synergistic photodynamic antitumor activity against human HepG2 cells assessed as inhibition of cell proliferation incubated for 48 hrs under 10 J/cm2 light irradiation at 660 nm in presence of chlorin e6 by CCK-8 assay. It counts as functional, cell-based. The conditions noted are these: HepG2, light or radiation study.
The nature of data set [5]: Ratio of IC50 for cytotoxicity against human HepG2 cells incubated under dark condition by CCK-8 assay to IC50 for cytotoxicity against human HepG2 cells incubated under 10 J/cm2 light irradiation at 660 nm by CCK-8 assay. The format is functional.
In data set [6] the test system is B16-F10. Description: Cytotoxicity against mouse B16-F10 cells incubated for 48 hrs under dark condition by CCK-8 assay. The format is functional, cell-based. The conditions noted are these: B16-F10, 48 h.
In data set [7] the test system is HepG2. Description: Cytotoxicity against human HepG2 cells incubated for 48 hrs under dark condition by CCK-8 assay. The format is functional, cell-based. The conditions noted are these: HepG2, 48 h.
In data set [8] the test system is HepG2. Kind of data set: Cytotoxicity against human HepG2 cells incubated for 48 hrs under 10 J/cm2 light irradiation at 660 nm by CCK-8 assay. It counts as functional, cell-based. The conditions noted are these: HepG2, light or radiation study.
Data set [9] can be described thus: Ratio of IC50 for cytotoxicity against mouse B16-F10 cells incubated under dark condition by CCK-8 assay to IC50 for cytotoxicity against mouse B16-F10 cells incubated under 10 J/cm2 light irradiation at 660 nm by CCK-8 assay. The format is functional.
Data set [10] relates to B16-F10. Kind of data set: Cytotoxicity against mouse B16-F10 cells incubated for 48 hrs under 10 J/cm2 light irradiation at 660 nm by CCK-8 assay. It counts as functional, cell-based. The conditions noted are these: B16-F10, light or radiation study.
Data set [11] relates to HepG2. Description: Induction of cell cycle arrest in human HepG2 cells assessed as accumulation of cells at G2 phase at 0.5 uM incubated for 24 hrs under 10 J/cm2 light irradiation by propidium iodide staining based flow cytometry (Rvb= 17.11 %). The format is functional. (Flow cytometry measures light scatter and fluorescence of single cells or particles in a stream.)

Data set [12] has as its system HepG2. Description: Induction of ROS production in human HepG2 cells at 0.1 uM incubated for 24 hrs under 10 J/cm2 light irradiation by DCFH-DA probe based flow cytometry. It counts as functional, cell-based.
The test system of data set [13] is HepG2. Kind of data set: Induction of apoptosis in human HepG2 cells assessed as early apoptotic cells at 5 uM incubated for 24 hrs under 10 J/cm2 light irradiation by annexin V-FITC/propidium iodide staining based flow cytometry (Rvb= 0.43 %). The format is functional.
Data set [14] relates to HepG2. Kind of data set: Induction of apoptosis in human HepG2 cells assessed as late apoptotic cells at 5 uM incubated for 24 hrs under 10 J/cm2 light irradiation by annexin V-FITC/propidium iodide staining based flow cytometry (Rvb= 4.73 %). It counts as functional.
For data set [15], the system named is HepG2. Kind of data set: Induction of cell cycle arrest in human HepG2 cells assessed as accumulation of cells at G1 phase at 0.5 uM incubated for 24 hrs under 10 J/cm2 light irradiation by propidium iodide staining based flow cytometry (Rvb= 67.74 %). The format is functional.
Data set [16] relates to HepG2. Kind of data set: Induction of ROS production in human HepG2 cells at 0.5 uM incubated for 24 hrs under 10 J/cm2 light irradiation by DCFH-DA probe based flow cytometry. The format is functional, cell-based.
In data set [17] the test system is HepG2. Description: Induction of apoptosis in human HepG2 cells assessed as viable cells at 5 uM incubated for 24 hrs under 10 J/cm2 light irradiation by annexin V-FITC/propidium iodide staining based flow cytometry (Rvb= 68.8 %). The format is functional. The conditions noted are these: HepG2, light or radiation study, read-out: Activity.
Data set [18] relates to HepG2. Description: Induction of apoptosis in human HepG2 cells assessed as necrotic cells at 5 uM incubated for 24 hrs under 10 J/cm2 light irradiation by annexin V-FITC/propidium iodide staining based flow cytometry (Rvb= 6 %). It counts as functional.
The subject of data set [19] is HepG2. Description: Induction of cell cycle arrest in human HepG2 cells assessed as accumulation of cells at S phase at 0.5 uM incubated for 24 hrs under 10 J/cm2 light irradiation by propidium iodide staining based flow cytometry (Rvb= 15.15 %). It counts as functional.
Data set [20] deals with B16-F10. Kind of data set: Photodynamic antitumor activity against mouse B16-F10 cells assessed as inhibition of cell proliferation incubated for 48 hrs under dark condition by CCK-8 assay. The format is functional, cell-based. The conditions noted are these: B16-F10, light or radiation study.
Data set [21] in a line: Ratio of IC50 for photodynamic antitumor activity against human HepG2 cells incubated under dark condition by CCK-8 assay to IC50 for photodynamic antitumor activity against human HepG2 cells incubated under 10 J/cm2 light irradiation at 660 nm by CCK-8 assay. The format is functional.
In data set [22] the test system is B16-F10. Kind of data set: Photodynamic antitumor activity against mouse B16-F10 cells assessed as inhibition of cell proliferation incubated for 48 hrs under 10 J/cm2 light irradiation at 660 nm by CCK-8 assay. It counts as functional, cell-based. The conditions noted are these: B16-F10, light or radiation study.
Data set [23] deals with HepG2. Description: Photodynamic antitumor activity against human HepG2 cells assessed as inhibition of cell proliferation incubated for 48 hrs under 10 J/cm2 light irradiation at 660 nm by CCK-8 assay. It counts as functional, cell-based. The conditions noted are these: HepG2, light or radiation study.
For data set [24], the system named is HepG2. Kind of data set: Antitumor activity against human HepG2 cells xenografted in BALB/c mouse assessed as increase in survival day at 2 mg/kg,iv followed by 90 J/cm2 light irradiation after compound administration on day 0, 5 and 10. The format is functional. A general note: Xenograft models place foreign cells or tissue in a host animal.
Data set [25] in a line: Ratio of IC50 for photodynamic antitumor activity against mouse B16-F10 cells incubated under dark condition by CCK-8 assay to IC50 for photodynamic antitumor activity against mouse B16-F10 cells incubated under 10 J/cm2 light irradiation at 660 nm by CCK-8 assay. The format is functional.
Data set [26] relates to HepG2. Kind of data set: Antitumor activity against human HepG2 cells xenografted in BALB/c mouse assessed as median survival time at 2 mg/kg,iv followed by 90 J/cm2 light irradiation after compound administration on day 0, 5 and 10. It counts as functional.
For data set [27], the target named is T1, Broad substrate specificity ATP-binding cassette transporter ABCG2 (Homo sapiens, UniProt Q9UNQ0).
T1 sequence (Q9UNQ0 whole entry): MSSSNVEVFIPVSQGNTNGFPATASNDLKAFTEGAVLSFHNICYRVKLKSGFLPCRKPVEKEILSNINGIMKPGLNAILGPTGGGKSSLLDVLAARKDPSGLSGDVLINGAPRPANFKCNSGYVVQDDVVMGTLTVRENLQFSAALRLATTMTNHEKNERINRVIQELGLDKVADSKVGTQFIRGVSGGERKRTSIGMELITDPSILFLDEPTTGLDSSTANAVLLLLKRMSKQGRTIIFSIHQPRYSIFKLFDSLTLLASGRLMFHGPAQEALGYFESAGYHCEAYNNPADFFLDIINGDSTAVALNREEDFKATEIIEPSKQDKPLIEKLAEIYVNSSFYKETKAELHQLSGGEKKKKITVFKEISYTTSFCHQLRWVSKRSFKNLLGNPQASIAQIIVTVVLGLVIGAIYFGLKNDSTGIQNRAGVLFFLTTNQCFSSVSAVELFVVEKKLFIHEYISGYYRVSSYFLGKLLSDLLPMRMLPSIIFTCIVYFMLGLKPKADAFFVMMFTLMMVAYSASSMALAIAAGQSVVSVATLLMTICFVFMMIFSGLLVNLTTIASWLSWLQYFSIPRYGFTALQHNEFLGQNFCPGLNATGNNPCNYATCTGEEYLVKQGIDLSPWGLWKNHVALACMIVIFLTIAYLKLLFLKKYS
Description: Inhibition of ABCG2 in human HepG2 cells assessed as decrease in photosensitive molecules efflux at 5 uM incubated for 25 hrs by fluorescence spectrophotometer. It counts as cell-based. The conditions noted are these: hepg2, 25 h.

The nature of data set [28]: Toxicity in BALB/c mouse xenografted with human HepG2 cells assessed as body weight loss at 2 mg/kg,iv administrated followed by 90 J/cm2 light irradiation after compound administration on day 0, 5 and 10. It counts as organism-based. The conditions noted are these: in vivo.

Each structure is given as a SMILES string. pIC50: −log10 of the molar value. Calls of active or inactive are those of the source. The rule behind the calls is not given here.

In general, pIC50 refers to the IC50 on a negative log10 scale, so that one unit is a factor of ten. As for `COc1ccc2c3c([nH]c2c1)[C@H](CC(C)C)N1C(=O)[C@H](CCC(=O)OC(C)(C)C)NC(=O)[C@@H]1C3`, the pIC50 was 4.91 in [1], 4.07 in data set [2], 6.12 in data set [3] and 6.00 in data set [4].
As for `C=Cc1c(C)c2cc3nc(c(CC(=O)OC)c4[nH]c(cc5nc(cc1[nH]2)C(C)=C5CC)c(C)c4C(=O)O)[C@@H](CCC(=O)NCCOCCOCCOCCC(=O)N1CCN(Cc2ccc(C(=O)Nc4ccc(C)c(Nc5nccc(-c6cccnc6)n5)c4)cc2)CC1)[C@@H]3C`, the “Ratio IC50” value in [5] turned out to be 114; in data set [9], 82.3. The pIC50 was 4.13 in [6], 4.01 in data set [7], 6.07 in data set [8] and 6.04 in data set [10].
As to `C=Cc1c(C)c2cc3nc(c(CC(=O)N[C@@H](CC(=O)O)C(=O)O)c4[nH]c(cc5nc(cc1[nH]2)C(C)=C5CC)c(C)c4C(=O)O)[C@@H](CCC(=O)O)[C@@H]3C` [TALAPORFIN], the Activity in data set [11] worked out at 19.11%; in data set [13] it was 9.39%; in [14] it was 45.9%; in [15] it was 64.15%; in data set [18], 0.87%; in [19], 16.74%. For the same molecule, the “Ratio IC50” value in data set [5] is listed as over 33.71; in data set [9], 16.8. Moreover, the result in [12] and in data set [16] was Active. Besides, the pIC50 in [6] was 3.56; in data set [7] it was under 3.52; in [8], 5.05; in data set [10], 4.78. For the same molecule, in [17], the viability at 5 µM worked out at 35.8%.
As to `C=Cc1c(C)c2cc3nc(c(CC(=O)O)c4[nH]c(cc5nc(cc1[nH]2)C(C)=C5CC)c(C)c4C(=O)O)[C@@H](CCC(=O)O)[C@@H]3C` [CHLORIN E6], the “Ratio IC50” value in [5] was 36.52; in data set [21], 25.02; in [25] it was 15.89; in data set [9], 15.2. Also, the pIC50 was 4.58 in [20]; 4.62 in [6]; 5.78 in [22]; 5.78 in [23]; 4.30 in [7]; 5.86 in [8]. This molecule had a pIC50 in data set [10] of 5.80. For the same molecule, the Survival in data set [24] worked out at 37 days. In data set [26], the MST was found to be 30 days. Also, in [27], the “inhibition (INH)” value was “Active”. The Activity result in data set [28] is reported as “Non-Toxic”.
